Laboratory results: ChEMBL document CHEMBL1201862, “PubChem BioAssay data set” (2004)
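Five concentrations, 48 hours, 96-well plates. GI50: concentration for 50% inhibition of growth.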 Calls of active or inactive are those of the source. Cut-off read from the data, not from the text of the source: active = GI50 up to about 1.1 µM and inactive = higher.

Key:
Test in all cases: NCI anticancer screen, dose series, 48 h
786-0 = tested on: 786-0
A549 = tested on: A549
DU-145 = tested on: DU-145
HOP-92 = tested on: HOP-92
HT-29 = tested on: HT-29
K562 = tested on: K562
KM12 = tested on: KM12
LOX IMVI = tested on: LOX IMVI
M14 = tested on: M14
Malme-3M = tested on: Malme-3M
NCI-H460 = tested on: NCI-H460
OVCAR-8 = tested on: OVCAR-8
PC-3 = tested on: PC-3
SF-268 = tested on: SF-268
SK-MEL-5 = tested on: SK-MEL-5
SNB-19 = tested on: SNB-19
SW-620 = tested on: SW-620
UACC-62 = tested on: UACC-62
NCI-H226 = tested on: NCI-H226
SNB-75 = tested on: SNB-75

Measured: GI50

O=[N+]([O-])c1ccc(NN=C2CN3CCN(C2)c2ccccc23)c([N+](=O)[O-])c1
inactive: 786-0 > 100 µM | A549 > 100 µM | DU-145 > 100 µM | HOP-92 85.3 µM | HT-29 > 100 µM | K562 > 100 µM | KM12 > 100 µM | LOX IMVI > 100 µM | M14 > 100 µM | Malme-3M > 100 µM | NCI-H460 > 100 µM | OVCAR-8 > 100 µM | PC-3 > 100 µM | SF-268 > 100 µM | SK-MEL-5 > 100 µM | SNB-19 > 100 µM | SW-620 > 100 µM | UACC-62 > 100 µM

N=C(CSSCC(=N)NCC12CC3CC(CC(C3)C1)C2)NCC12CC3CC(CC(C3)C1)C2
inactive: 786-0 29.9 µM | A549 13.7 µM | DU-145 16.9 µM | HOP-92 16.3 µM | HT-29 13.6 µM | K562 11.4 µM | KM12 14.1 µM | M14 18.2 µM | Malme-3M 16.8 µM | NCI-H226 20.9 µM | NCI-H460 29.2 µM | OVCAR-8 18 µM | PC-3 14.9 µM | SF-268 37.7 µM | SK-MEL-5 20.2 µM | SNB-19 19.2 µM | SNB-75 20.8 µM | SW-620 17.5 µM | UACC-62 13.3 µM

CC(=O)Oc1ccc2c(c1)Oc1cc(C(C)=O)ccc1C21OC(=O)c2ccccc21 (stereo unspecified)
inactive: 786-0 > 100 µM | A549 > 100 µM | DU-145 > 100 µM | HOP-92 > 100 µM | HT-29 > 100 µM | K562 > 100 µM | KM12 > 100 µM | LOX IMVI > 100 µM | M14 > 100 µM | Malme-3M > 100 µM | NCI-H460 > 100 µM | OVCAR-8 > 100 µM | PC-3 > 100 µM | SF-268 1.8 µM | SK-MEL-5 > 100 µM | SNB-19 > 100 µM | SNB-75 94.8 µM | SW-620 > 100 µM | UACC-62 > 100 µM

C=C1CC2(C)CCC(OC(=O)C3(C)OC3C)C(C)(OC(C)=O)C2CC1=C(C)C (stereo unspecified)
inactive: 786-0 > 10 µM | A549 > 100 µM | DU-145 > 100 µM | HOP-92 > 100 µM | HT-29 > 100 µM | K562 > 100 µM | KM12 > 100 µM | LOX IMVI > 100 µM | M14 > 100 µM | Malme-3M > 100 µM | NCI-H460 > 100 µM | OVCAR-8 > 100 µM | PC-3 > 100 µM | SF-268 > 100 µM | SK-MEL-5 > 100 µM | SNB-19 > 100 µM | SNB-75 > 100 µM | SW-620 > 100 µM | UACC-62 > 100 µM

C[n+]1c(-c2ccc(/C=N\Nc3ccnc(N/N=C/c4ccc(-c5cn6ccsc6[n+]5C)cc4)n3)cc2)cn2ccsc21
inactive: 786-0 10.9 µM | A549 31.3 µM | DU-145 27.8 µM | HOP-92 18.3 µM | HT-29 9.93 µM | K562 8.71 µM | KM12 15.8 µM | M14 4.95 µM | Malme-3M 29.7 µM | NCI-H226 16.4 µM | NCI-H460 23 µM | OVCAR-8 27.4 µM | PC-3 48.3 µM | SK-MEL-5 10.6 µM | SNB-19 37.6 µM | SNB-75 34 µM | SW-620 32.7 µM | UACC-62 24.4 µM

Cc1ccc(Nc2c3c(c(C#N)c4nc5ccccc5n24)CCCC3)cc1
inactive: 786-0 26.7 µM | A549 12.5 µM | DU-145 52.7 µM | HOP-92 17.1 µM | HT-29 13.6 µM | K562 4.39 µM | KM12 > 100 µM | LOX IMVI 22.1 µM | M14 21.6 µM | Malme-3M 30.7 µM | NCI-H226 21.7 µM | NCI-H460 16.9 µM | OVCAR-8 18 µM | PC-3 6.64 µM | SF-268 > 100 µM | SK-MEL-5 10.7 µM | SNB-19 38.4 µM | SW-620 15.4 µM | UACC-62 14.7 µM

OCC1CCCC1O (stereo unspecified)
inactive: 786-0 > 100 µM | A549 > 100 µM | DU-145 > 100 µM | HOP-92 > 100 µM | HT-29 > 100 µM | K562 > 100 µM | KM12 > 100 µM | M14 > 100 µM | Malme-3M > 100 µM | NCI-H226 > 100 µM | NCI-H460 > 100 µM | OVCAR-8 > 100 µM | PC-3 > 100 µM | SF-268 > 100 µM | SK-MEL-5 > 100 µM | SNB-19 > 100 µM | SNB-75 > 100 µM | SW-620 > 100 µM | UACC-62 > 100 µM

CC(=O)Nc1ccc(NC(=O)c2c(Cl)c(Cl)c(Cl)c(Cl)c2-c2nc3ccccc3[nH]2)cc1
inactive: 786-0 49.1 µM | A549 36.4 µM | DU-145 46.8 µM | HOP-92 15.7 µM | HT-29 35.7 µM | K562 27.5 µM | KM12 28.2 µM | M14 35.7 µM | Malme-3M 51.4 µM | NCI-H226 35.4 µM | NCI-H460 24.7 µM | OVCAR-8 45.1 µM | PC-3 44.7 µM | SF-268 53.5 µM | SK-MEL-5 28.6 µM | SNB-19 54.2 µM | SNB-75 73.3 µM | SW-620 48.5 µM | UACC-62 27.8 µM

O=C(O)/C(=C/c1ccccc1)c1ccccc1
inactive: 786-0 > 100 µM | A549 > 100 µM | DU-145 > 100 µM | HOP-92 46.6 µM | HT-29 > 100 µM | K562 > 100 µM | KM12 > 100 µM | LOX IMVI > 100 µM | M14 > 100 µM | Malme-3M > 100 µM | NCI-H460 > 100 µM | OVCAR-8 > 100 µM | PC-3 > 100 µM | SF-268 > 100 µM | SK-MEL-5 > 100 µM | SNB-19 > 100 µM | SNB-75 > 100 µM | SW-620 > 100 µM | UACC-62 > 100 µM

O=C1NC(O)CCN1C1CC(O)C(CO)O1 (stereo unspecified)
inactive: 786-0 > 100 µM | A549 > 100 µM | DU-145 > 100 µM | HOP-92 > 100 µM | K562 > 100 µM | KM12 74.1 µM | LOX IMVI > 100 µM | M14 > 100 µM | Malme-3M > 100 µM | NCI-H226 > 100 µM | NCI-H460 > 100 µM | OVCAR-8 > 100 µM | PC-3 > 100 µM | SF-268 > 100 µM | SK-MEL-5 > 100 µM | SNB-19 > 100 µM | SW-620 > 100 µM | UACC-62 > 100 µM

Cc1nnc(N)nc1/C=C\c1ccc(Cl)cc1Cl
inactive: 786-0 40.7 µM | A549 39.2 µM | DU-145 72.8 µM | HOP-92 39.2 µM | HT-29 20.6 µM | K562 77.8 µM | KM12 18.6 µM | LOX IMVI 40.2 µM | M14 29.6 µM | Malme-3M 23.8 µM | NCI-H226 17.3 µM | NCI-H460 19.9 µM | OVCAR-8 27 µM | PC-3 16.9 µM | SF-268 34.8 µM | SK-MEL-5 30.9 µM | SNB-19 30.2 µM | SW-620 22 µM | UACC-62 30.8 µM
